From patent EP2650284A1, “Heterocyclic derivatives as metabotropic glutamate receptor modulators” (Merz Pharma GmbH & Co. KGaA, priority 2012, dated 2013)

Columns and labels:
[1] = target: T1, human metabotropic glutamate receptor mGluR5 (Homo sapiens, UniProt P41594); assay: Cytosolic calcium studies with stably transfected cells (h5CHO), functional assay of mGluR5 receptors; type: cell-based; conditions: for h left shift: h5CHO cells; for EC50: positive modulators, h5CHO cells preincubated with modulator, stimulated by an EC20 concentration of L-glutamate, read-out: hEC50
T1 construct: expressed in transfected cells; host or cells: CHO-K1 (h5CHO), IPTG-inducible
T1 sequence (P41594 21-1212): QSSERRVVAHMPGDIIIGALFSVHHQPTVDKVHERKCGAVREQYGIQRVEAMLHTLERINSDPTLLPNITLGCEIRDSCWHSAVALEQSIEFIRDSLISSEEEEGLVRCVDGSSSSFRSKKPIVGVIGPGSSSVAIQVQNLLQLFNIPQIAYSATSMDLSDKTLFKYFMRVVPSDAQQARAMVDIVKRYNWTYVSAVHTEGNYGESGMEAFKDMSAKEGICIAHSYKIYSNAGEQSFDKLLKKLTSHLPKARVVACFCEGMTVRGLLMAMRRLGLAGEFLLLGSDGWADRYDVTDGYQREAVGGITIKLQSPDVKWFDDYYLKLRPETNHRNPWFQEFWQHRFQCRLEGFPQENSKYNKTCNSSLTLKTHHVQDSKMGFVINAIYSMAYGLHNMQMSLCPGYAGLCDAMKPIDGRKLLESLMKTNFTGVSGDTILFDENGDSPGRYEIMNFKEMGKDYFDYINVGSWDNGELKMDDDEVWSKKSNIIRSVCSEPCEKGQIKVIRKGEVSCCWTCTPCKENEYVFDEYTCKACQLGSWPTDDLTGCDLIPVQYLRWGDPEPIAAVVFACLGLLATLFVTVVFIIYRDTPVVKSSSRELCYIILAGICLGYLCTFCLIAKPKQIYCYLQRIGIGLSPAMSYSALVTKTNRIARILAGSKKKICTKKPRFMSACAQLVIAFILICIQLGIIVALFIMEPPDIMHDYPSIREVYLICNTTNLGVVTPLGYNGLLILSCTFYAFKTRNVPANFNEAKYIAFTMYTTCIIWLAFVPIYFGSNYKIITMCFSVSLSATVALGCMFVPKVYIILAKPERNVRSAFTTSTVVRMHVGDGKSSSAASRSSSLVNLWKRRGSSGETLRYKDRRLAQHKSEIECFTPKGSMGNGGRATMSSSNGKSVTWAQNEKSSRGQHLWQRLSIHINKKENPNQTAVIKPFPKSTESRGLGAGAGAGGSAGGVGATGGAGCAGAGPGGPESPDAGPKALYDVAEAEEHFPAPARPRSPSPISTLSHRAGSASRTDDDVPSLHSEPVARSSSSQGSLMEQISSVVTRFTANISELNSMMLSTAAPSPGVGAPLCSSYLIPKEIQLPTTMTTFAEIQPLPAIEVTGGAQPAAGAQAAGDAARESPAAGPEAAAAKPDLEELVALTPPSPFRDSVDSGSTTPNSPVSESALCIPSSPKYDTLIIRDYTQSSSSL
How it was run: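 IPTG-induced h5CHO (CHO-K1 expressing human mGluR5) loaded with calcium dye; compounds (0.5% DMSO) added 5 min before agonist. NAM IC50 against L-quisqualate at ~EC80; PAM EC50 with EC20 L-glutamate. FLIPR fluorescence, max-minus-min, % of maximal response, logistic fit.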

[2] = target: T2, mGluR5 binding site (Rattus norvegicus, UniProt P31424); assay: [3H]-M-MPEP displacement studies on rat cortical membranes; conditions: Table A3, [3H]-M-MPEP 2 nM, 4°C for 1 h, median, read-out: Ki (MMPEP)
T2 construct: from tissue; host or cells: cortex of adult male Sprague-Dawley rats, membrane preparation
T2 sequence (P31424 21-1203): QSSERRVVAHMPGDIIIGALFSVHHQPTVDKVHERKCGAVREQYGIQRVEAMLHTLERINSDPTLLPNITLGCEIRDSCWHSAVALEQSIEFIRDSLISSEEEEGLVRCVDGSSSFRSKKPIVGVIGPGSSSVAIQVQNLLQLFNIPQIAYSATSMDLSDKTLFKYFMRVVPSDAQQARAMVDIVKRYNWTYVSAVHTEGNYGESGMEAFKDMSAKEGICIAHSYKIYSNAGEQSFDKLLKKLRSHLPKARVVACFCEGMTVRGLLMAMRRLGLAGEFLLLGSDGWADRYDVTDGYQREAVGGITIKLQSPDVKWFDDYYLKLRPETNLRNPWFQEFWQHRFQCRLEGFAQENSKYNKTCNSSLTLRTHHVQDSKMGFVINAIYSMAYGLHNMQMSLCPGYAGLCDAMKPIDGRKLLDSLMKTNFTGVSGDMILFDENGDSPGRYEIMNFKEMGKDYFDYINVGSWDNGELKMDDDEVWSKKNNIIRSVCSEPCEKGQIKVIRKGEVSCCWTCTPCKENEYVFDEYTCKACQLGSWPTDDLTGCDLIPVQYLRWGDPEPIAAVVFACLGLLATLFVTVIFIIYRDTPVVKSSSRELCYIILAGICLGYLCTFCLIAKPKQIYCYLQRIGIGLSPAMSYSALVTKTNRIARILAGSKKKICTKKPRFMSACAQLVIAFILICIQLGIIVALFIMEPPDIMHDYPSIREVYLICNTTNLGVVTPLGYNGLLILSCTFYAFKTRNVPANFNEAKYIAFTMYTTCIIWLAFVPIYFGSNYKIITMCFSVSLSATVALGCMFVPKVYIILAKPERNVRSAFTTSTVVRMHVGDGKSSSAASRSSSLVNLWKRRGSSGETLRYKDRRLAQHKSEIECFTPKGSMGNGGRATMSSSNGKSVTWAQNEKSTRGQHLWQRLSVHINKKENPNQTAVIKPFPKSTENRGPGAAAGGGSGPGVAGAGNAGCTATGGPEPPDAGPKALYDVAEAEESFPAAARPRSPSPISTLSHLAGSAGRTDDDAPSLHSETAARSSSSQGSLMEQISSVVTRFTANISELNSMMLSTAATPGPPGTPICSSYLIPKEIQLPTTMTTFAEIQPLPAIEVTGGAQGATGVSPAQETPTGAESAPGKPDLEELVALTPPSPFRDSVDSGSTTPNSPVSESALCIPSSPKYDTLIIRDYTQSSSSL
Description: Tissue preparation is performed according to Foster & Wong (Br. J. Pharmacol., 1987, 91, 403-409) with some modifications. Anaesthetised male Sprague-Dawley rats (200-250 g, Janvier, Le Genest-Isle, France) are decapitated and their brains are removed rapidly. The cortex is dissected out and processed as described by Parsons, et al. (J. Pharmacol. Exp. Ther., 1997, 283(3): 1264-1275). For isolation of the cell membranes, the cortices are homogenized in 20 volumes of ice-cold 0.32 M sucrose (Sigma-Aldrich, Taufkirchen, Germany) using a glass-Teflon homogenizer. The homogenate is centrifuged at 1000 x g for 10 minutes, the pellet is discarded and the supernatant centrifuged at 20,000 x g for 20 minutes. The resulting pellet is resuspended in 20 volumes of distilled water and centrifuged for 20 minutes at 8000 x g. The supernatant and the buffy coat are then centrifuged six times (48,000 x g for 20 minutes) in the presence of 5 mM Tris-HCl, pH 7.5. All centrifugation steps are carried out at 4°C. After resuspension in 5 volumes of 5 mM Tris-HCl, pH 7.5, the membrane suspension is frozen rapidly at -80°C.
On the day of assay, the membrane suspensions are thawed, centrifuged (48,000 x g for 20 minutes) and then resuspended in 50 mM Tris-HCl, pH 7.5 (assay buffer). The amount of protein in the final membrane preparation is determined according to the method of Lowry, et al. (J. Biol. Chem., 1951, 193, 256-275). The final concentration used for our studies is 400 µg / ml.
The Tecan robotic system designed for binding assays is loaded with the membrane solution, a 96 well stock plate containing the solutions for bound control (buffer/DMSO 10%), unlabeled MPEP (10 µM) for evaluation of non-specific binding, all compounds to be tested (at 20-fold concentrations), various empty 96-well plates for dilutions and the final assay plates, as well as a 96-well plate filled with the radioligand.
Before performing displacement studies, saturation experiments are performed to determine the equilibrium dissociation constant (Kd, Cheng and Prussoff, Biochem. Pharmacol., 1973, 22: 3099-3108) of [^3H]-M-MPEP, which is a parameter for the affinity of the radioligand to the binding site. On the basis of the saturation experiments, a final [^3H]-M-MPEP concentration of 2 nM was selected.
Firstly, the assay plates are loaded with membrane solution and are shaken at 4°C. The mother plates were then prepared by pipetting the compounds (n = 5) into assay buffer/10% DMSO to obtain the desired final concentrations. After transferring radioligand into the assay plates, the compounds are added (including the non-specific binding control containing MPEP). The final DMSO concentration is always 1 %. The assay plates are incubated and shaken at 4°C for 1 h, before the mixture is exhausted as rapidly as possible via a vacuum manifold using the Multiscreen HTS glass fibre (type B) high flow filter plates (Millipore, Schwalbach, Germany) under a constant vacuum of 450 mbar. The membranes are washed four times with cold assay buffer (100 µL). 50 µL of Ultima Gold scintillation cocktail (PerkinElmer) is added to the wet filter plates and incubated at rt overnight before counting the disintegration per minutes using a liquid scintillation counter (MicroBeta, PerkinElmer).
For the evaluation of the test compound binding affinity to the mGluR5 binding site and its potency to displace [^3H]-M-MPEP, the measured radioactivity of the radioligand alone was set as 100% bound control and the non-specific binding of the radioligand represented the 0% control. The residual radioactivity after displacement of the test compound was then corrected with respect to the set controls. Data are given as median IC50 and Ki, respectively.

[3] = Table A3 (SAMs / very weak PAMs), agonist EC50 shift with 10 µM modulator or vehicle
[4] = Table A1, left shift of agonist EC50, dose response curves in the presence of 10 µM modulator or vehicle

h left shift [1, 3] | Ki [2] [µM] | h left shift [1, 4] | EC50 ([1]; Table A1) [µM] | Structure (SMILES)
1.3-fold | 1.72 |  |  | CCCN1CCO[C@@H]2c3cc(C#Cc4cccc(C)c4)cnc3CC[C@@H]21 (racemic) [Example 21, (rac)-cis-4-Propyl-9-(m-tolylethynyl)-3,4,4a,5,6,10b-hexahydro-2H-[1,4]oxazino[2,3-f]quinoline]
1.3-fold | 0.289 |  |  | COC(=O)N1CC[C@H]2CCc3ncc(C#Cc4ccccc4)cc3[C@H]21 (racemic) [Example 29, (rac)-cis-Methyl 8-(phenylethynyl)-2,3,3a,4,5,9b-hexahydro-1H-pyrrolo[2,3-f]quinoline-1-carboxylate]
1.2-fold | 0.399 |  |  | CCCN1CC2(CCCc3ncc(C#Cc4cccc(C)c4)cc32)OC1=O (racemic) [Example 64, (rac)-3-Propyl-3'-(m-tolylethynyl)-7',8'-dihydro-6'H-spiro[oxazolidine-5,5'-quinolin]-2-one]
1.6-fold | 0.857 |  |  | CCCN1CC2(CCCc3ncc(C#Cc4cccc(F)c4)cc32)OC1=O (racemic) [Example 66, (rac)-3'-((3-Fluorophenyl)ethynyl)-3-propyl-7',8'-dihydro-6'H-spiro[oxazolidine-5,5'-quinolin]-2-one]
2.3-fold | 0.204 | 2.3-fold | 0.0209 | COC1CCCc2ncc(C#Cc3ccccc3)cc21 (single isomer, unassigned) [Example 2, 5-Methoxy-3-(phenylethynyl)-5,6,7,8-tetrahydroquinoline]
2.3-fold | 3.62 | 2.3-fold | 0.388 | CCCN1CCO[C@@H]2c3cc(C#Cc4ccccc4)cnc3CC[C@@H]21 (single isomer, unassigned) [Example 17, cis-9-(Phenylethynyl)-4-propyl-3,4,4a,5,6,10b-hexahydro-2H-[1,4]oxazino[2,3-f]quinoline]
1.4-fold | 0.395 |  |  | CC(C)C(=O)N1CCc2ncc(C#Cc3ccccc3)cc2C1 [Example 33, 2-Methyl-1-(3-(phenylethynyl)-7,8-dihydro-1,6-naphthyridin-6(5H)-yl)propan-1-one]
1.3-fold | 0.0565 |  |  | CCOC(=O)N1CCc2ncc(C#Cc3ccccc3)cc2C1 [Example 40, Ethyl 3-(phenylethynyl)-7,8-dihydro-1,6-naphthyridine-6(5H)-carboxylate]
